Measurements from patent US20190010535A1, “METHODS AND COMPOSITIONS FOR THE DIAGNOSIS AND FOR THE TREATMENT OF ADRENOLEUKODYSTROPHY” (FUNDACIÓ INSTITUT D'INVESTIGACIÓ BIOMÈDICA DE BELLVITGE …, priority 2015, published 2019).

Legend:
Type in all cases: in vivo
Abcd1−/Abcd2−/− mice [1] = experiment: Treadmill test; settings: four months of treatment starting at 12 months of age, belt speed 30 cm/sec, slope 20°
Description: (§1) Treadmill apparatus consisted of a variable speed belt varying in terms of speed and slope. An electrified grid was located to the rear of the belt on which footshocks (0.2 mA) were administered whenever the mice fell off the belt. The treadmill apparatus (Panlab, Barcelona, Spain) consisted of a belt (50 cm long and 20 cm wide) varying in terms of speed (5 to 150 cm/s) and slope (0-25°) enclosed in a plexiglass chamber. The latency to falling off the belt (time of shocks in seconds) and the number of received shocks were measured. The mice were placed on the top of the already moving belt facing away from the electrified grid and in the direction opposite to the movement of the belt. Thus, to avoid the footshocks, the mice had to locomote forward.
(§2) The mice were evaluated in five trials in a single-day session. In the first trial, the belt speed was set at 20 cm/s and the inclination at 50. […] When the mice were subjected to consecutive trials at increasing speeds up to 20 cm/sec and a 20° slope, no differences were detected from one session to another between the WT and Abcd1^−/Abcd2^−/− mice. However, when the belt speed was increased up to 30 cm/sec and the slope was 20°, differences were detected between the Abcd1^−/Abcd2^−/− mice and the controls because this task requires greater coordination. […]

Abcd1−/Abcd2−/− mice [2] = experiment: Horizontal bar cross test; settings: four months of treatment starting at 12 months of age
Description: The bar cross test was carried out using a wooden bar of 100 cm in length and 2 cm in width (diameter). This bar is just wide enough for mice to stand on with their hind feet hanging over the edge such that any slight lateral misstep will result in a slip. […] The mice were put on one end of the bar and expected to cross to the other end. To eliminate the novelty of the task as a source of slips, all animals were given four trials on the bar the day before and at the beginning of the testing session. In an experimental session, the number of hind limb lateral slips and falls from the bar was counted on four consecutive trials. If an animal fell, it was placed back on the bar at the point at which it fell and was allowed to complete the task. The bar was cleaned with ethanol after each animal.

Abcd1−/Abcd2−/− mice [3] = experiment: Locomotor testing overall (treadmill and bar cross), disease progression in X-ALD mice; settings: four months of treatment
Description: as §1, with “Thus, to avoid the footshocks, the mice had to locomote forward.” left out
as §2, with “session.” for “session. In the first trial, the belt speed was set at 20 cm/s and the inclination at 50.”
The bar cross test was carried out using a wooden bar of 100 cm in length and 2 cm in width (diameter). […] In an experimental session, the number of hind limb lateral slips and falls from the bar was counted on four consecutive trials. […]

SMILES	ratio between the time of shocks and the number of shocks (locomotor deficit index) (Abcd1−/Abcd2−/− mice [1])	number of slips (Abcd1−/Abcd2−/− mice [2])	time necessary to cross the bar (Abcd1−/Abcd2−/− mice [2])	progression of the disease in X-ALD mice (Abcd1−/Abcd2−/− mice [3])
CCCCCCCCc1ccc(CCC(N)(CO)CO)cc1 [Fingolimod]	indistinguishable from the WT ratio	normalized	normalized	arrested the progression of the disease
CCc1cc(/C(C)=N/OCc2ccc(C3CCCCC3)c(C(F)(F)F)c2)ccc1CN1CC(C(=O)O)C1 [Siponimod]	indistinguishable from the WT ratio	normalized	normalized	arrested the progression of the disease
